According to patent publication US20160046618A1, “Cyclopropyl Fused Thiazin-2-Amine Compounds as Beta-Secretase Inhibitors and Methods of Use” (AMGEN INC., priority 2014, published 2016):

Experiments:
Recombinant Cat D = Recombinant Cat D (Homo sapiens (Human), UniProt P07339); assay: In vitro enzymatic Cathepsin D (Cat D) FRET assay; type: biochemical; details: read-out: IC50 IP (μM) CatD
Outline: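 Cleavage of a 20 nM FRET peptide by CHO-derived Cat D over 1 h at pH 3.5 (citrate buffer with CHAPS, 10% DMSO final). Endpoint fluorescence is read after Tris quench.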

[1] = tested on: Aβ40 in conditioned medium of cells stably expressing Amyloid Precursor Protein (APP); assay: In vitro BACE-1 cell-based assay (Aβ40 sandwich ELISA); details: read-out: IC50 IP (μM) BACE1 cell
Outline: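 APP-stable cells, pre-cultured 24 h at 37° C in DMEM/10% FBS, were treated 24 h with compound in a 10-point series starting at 100 μM or 10 μM (0.1% DMSO final). Secreted Aβ40 in conditioned medium was measured by pAb40/biotin-6E10 sandwich ELISA with Europium time-resolved fluorescence; IC50 from percent inhibition versus concentration.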

human recombinant BACE1 = human recombinant BACE1 (Homo sapiens (Human), UniProt P56817); assay: In vitro enzymatic BACE1 FRET assay; type: biochemical; details: read-out: IC50 IP (μM) BACE1 enzyme
Sequence of human recombinant BACE1 (P56817 46-501): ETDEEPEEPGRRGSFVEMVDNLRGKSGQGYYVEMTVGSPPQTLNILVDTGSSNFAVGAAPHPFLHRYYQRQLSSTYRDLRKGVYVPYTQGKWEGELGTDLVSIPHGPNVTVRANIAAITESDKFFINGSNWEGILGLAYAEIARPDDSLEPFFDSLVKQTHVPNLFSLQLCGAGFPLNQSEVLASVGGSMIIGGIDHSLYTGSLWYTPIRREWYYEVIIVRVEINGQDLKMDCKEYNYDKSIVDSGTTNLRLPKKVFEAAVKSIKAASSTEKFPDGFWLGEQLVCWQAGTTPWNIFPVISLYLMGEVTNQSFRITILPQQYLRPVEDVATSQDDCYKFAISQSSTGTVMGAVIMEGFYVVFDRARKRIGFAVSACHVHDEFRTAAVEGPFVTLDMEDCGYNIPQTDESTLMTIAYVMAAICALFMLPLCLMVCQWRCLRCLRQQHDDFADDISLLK
Outline: (§1)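 FRET cleavage assay using Ni-NTA-purified recombinant protease and 50 nM quenched peptide substrate, 1 h. Stopped by neutralising with Tris; fluorescence at 488/590 nm.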

human recombinant BACE2 = human recombinant BACE2 (Homo sapiens (Human), UniProt Q9Y5Z0); assay: In vitro enzymatic BACE2 FRET assay; type: biochemical; details: read-out: IC50 IP (μM) BACE2 enzyme
Sequence of human recombinant BACE2 (Q9Y5Z0 63-518): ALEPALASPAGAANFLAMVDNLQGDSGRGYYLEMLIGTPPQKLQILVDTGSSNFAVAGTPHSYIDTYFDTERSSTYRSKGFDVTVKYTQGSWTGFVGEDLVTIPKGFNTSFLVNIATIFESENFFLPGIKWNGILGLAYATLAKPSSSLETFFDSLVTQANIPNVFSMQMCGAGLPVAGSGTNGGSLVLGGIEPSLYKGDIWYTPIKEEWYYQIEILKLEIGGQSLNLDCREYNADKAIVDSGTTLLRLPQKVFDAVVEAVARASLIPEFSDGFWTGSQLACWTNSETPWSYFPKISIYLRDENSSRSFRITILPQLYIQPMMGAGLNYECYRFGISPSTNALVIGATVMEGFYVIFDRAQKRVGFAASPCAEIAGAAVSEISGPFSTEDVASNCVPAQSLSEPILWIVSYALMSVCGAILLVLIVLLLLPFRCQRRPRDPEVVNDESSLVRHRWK
Outline: as §1

Sequence of Recombinant Cat D (P07339 65-412): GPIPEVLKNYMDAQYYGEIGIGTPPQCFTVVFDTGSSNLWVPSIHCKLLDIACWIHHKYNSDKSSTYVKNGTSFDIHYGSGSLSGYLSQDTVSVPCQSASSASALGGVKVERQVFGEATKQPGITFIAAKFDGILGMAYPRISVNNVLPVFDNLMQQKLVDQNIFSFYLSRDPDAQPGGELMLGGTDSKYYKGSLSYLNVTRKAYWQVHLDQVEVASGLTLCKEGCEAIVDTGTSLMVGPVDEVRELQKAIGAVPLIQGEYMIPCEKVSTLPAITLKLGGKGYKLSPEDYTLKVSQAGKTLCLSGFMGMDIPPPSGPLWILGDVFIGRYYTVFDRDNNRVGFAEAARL

Structure (SMILES)	IC50 (Recombinant Cat D) [µM]	IC50 [1] [µM]	IC50 (human recombinant BACE1) [µM]	IC50 (human recombinant BACE2) [µM]
COC[C@]12C[C@H]1[C@@](C)(c1cc(NC(=O)c3ncc(OCc4ncco4)nc3C)cc(F)c1F)N=C(N)S2 [Example 863, N-(3-((1S,5S,6S)-3-amino-1-(methoxymethyl)-5-methyl-2-thia-4-azabicyclo[4.1.0]hept-3-en-5-yl)-4,5-difluorophenyl)-3-methyl-5-(1,3-oxazol-2-ylmethoxy)-2-pyrazinecarboxamide]	467	0.00635	0.00228	0.0249
COC[C@]12C[C@H]1[C@@](C)(c1cc(NC(=O)c3ncc(O[C@@H](C)c4ncco4)nc3C)cc(F)c1F)N=C(N)S2 [Example 864, N-(3-((1S,5S,6S)-3-amino-1-(methoxymethyl)-5-methyl-2-thia-4-azabicyclo[4.1.0]hept-3-en-5-yl)-4,5-difluorophenyl)-3-methyl-5-((1S)-1-(1,3-oxazol-2-yl)ethoxy)-2-pyrazinecarboxamide]	621	0.172	0.0609	0.652
CC#CCOc1cnc2c(Nc3ccc(F)c([C@@]4(CF)N=C(N)S[C@@]5(CF)C[C@H]54)c3)nccc2n1 [Example 865, N-(3-((1S,5S,6S)-3-amino-1,5-bis(fluoromethyl)-2-thia-4-azabicyclo[4.1.0]hept-3-en-5-yl)-4-fluorophenyl)-2-(2-butyn-1-yloxy)pyrido[3,4-b]pyrazin-5-amine]	325	0.00301	0.000236	0.0123
C[C@]1(c2cc(Nc3nccc4nc(OCc5ncco5)cnc34)cc(F)c2F)N=C(N)S[C@@]2(C(F)F)C[C@@H]12 [Example 866, N-(3-((1S,5S,6S)-3-amino-1-(difluoromethyl)-5-methyl-2-thia-4-azabicyclo[4.1.0]hept-3-en-5-yl)-4,5-difluorophenyl)-2-(1,3-oxazol-2-ylmethoxy)pyrido[3,4-b]pyrazin-5-amine]	> 400	0.0115	0.000941	0.0285
C[C@]1(c2cc(Nc3nccc4nc(OCc5cocn5)cnc34)cc(F)c2F)N=C(N)S[C@@]2(C(F)F)C[C@@H]12 [Example 867, N-(3-((1S,5S,6S)-3-amino-1-(difluoromethyl)-5-methyl-2-thia-4-azabicyclo[4.1.0]hept-3-en-5-yl)-4,5-difluorophenyl)-2-(1,3-oxazol-4-ylmethoxy)pyrido[3,4-b]pyrazin-5-amine]	299	0.011	0.00171	0.0549
CC#CCOc1cnc2c(Nc3cc(F)c(F)c([C@@]4(C)N=C(N)S[C@@]5(C(F)F)C[C@@H]45)c3)nccc2n1 [Example 868, N-(3-((1S,5S,6S)-3-amino-1-(difluoromethyl)-5-methyl-2-thia-4-azabicyclo[4.1.0]hept-3-en-5-yl)-4,5-difluorophenyl)-2-(2-butyn-1-yloxy)pyrido[3,4-b]pyrazin-5-amine]	> 400	0.0147	0.000671	0.0211
CC#CCOc1cnc2c(Nc3cc(F)c(F)c([C@@]4(C)N=C(N)S[C@@]5(COC)C[C@H]54)c3)nccc2n1 [Example 869, N-(3-((1S,5S,6S)-3-amino-1-(methoxymethyl)-5-methyl-2-thia-4-azabicyclo[4.1.0]hept-3-en-5-yl)-4,5-difluorophenyl)-2-(2-butyn-1-yloxy)pyrido[3,4-b]pyrazin-5-amine]	127	0.00155	0.000725	0.0173
Cc1nc(COc2cnc3c(Nc4cc(F)c(F)c([C@@]5(C)N=C(N)S[C@@]6(C(F)F)C[C@@H]56)c4)nccc3n2)co1 [Example 870, N-(3-((1S,5S,6S)-3-amino-1-(difluoromethyl)-5-methyl-2-thia-4-azabicyclo[4.1.0]hept-3-en-5-yl)-4,5-difluorophenyl)-2-((2-methyl-1,3-oxazol-4-yl)methoxy)pyrido[3,4-b]pyrazin-5-amine]	91.3	0.02	0.00156	0.0326
C[C@]1(c2cc(Nc3nccc4nc(OCCCF)cnc34)cc(F)c2F)N=C(N)S[C@@]2(C(F)F)C[C@@H]12 [Example 871, N-(3-((1S,5S,6S)-3-amino-1-(difluoromethyl)-5-methyl-2-thia-4-azabicyclo[4.1.0]hept-3-en-5-yl)-4,5-difluorophenyl)-2-(3-fluoropropoxy)pyrido[3,4-b]pyrazin-5-amine]	352	1.17	0.0183	0.517
CC(F)(F)COc1cnc2c(Nc3cc(F)c(F)c([C@@]4(C)N=C(N)S[C@@]5(C(F)F)C[C@@H]45)c3)nccc2n1 [Example 872, N-(3-((1S,5S,6S)-3-amino-1-(difluoromethyl)-5-methyl-2-thia-4-azabicyclo[4.1.0]hept-3-en-5-yl)-4,5-difluorophenyl)-2-(2,2-difluoropropoxy)pyrido[3,4-b]pyrazin-5-amine]	239	2.66	0.0193	0.441
C[C@]1(c2cc(Nc3nccc4nc(OCc5ncccc5F)cnc34)cc(F)c2F)N=C(N)S[C@@]2(C(F)F)C[C@@H]12 [Example 873, N-(3-((1S,5S,6S)-3-amino-1-(difluoromethyl)-5-methyl-2-thia-4-azabicyclo[4.1.0]hept-3-en-5-yl)-4,5-difluorophenyl)-2-((3-fluoro-2-pyridinyl)methoxy)pyrido[3,4-b]pyrazin-5-amine]	95.1	0.287	0.00175	0.0358
Cc1ccnc(COc2cnc3c(Nc4cc(F)c(F)c([C@@]5(C)N=C(N)S[C@@]6(C(F)F)C[C@@H]56)c4)nccc3n2)n1 [Example 874, N-(3-((1S,5S,6S)-3-amino-1-(difluoromethyl)-5-methyl-2-thia-4-azabicyclo[4.1.0]hept-3-en-5-yl)-4,5-difluorophenyl)-2-((4-methyl-2-pyrimidinyl)methoxy)pyrido[3,4-b]pyrazin-5-amine]	956	0.0245	0.00361	0.0755
C[C@]1(c2cc(Nc3nccc4nc(OCc5cscn5)cnc34)cc(F)c2F)N=C(N)S[C@@]2(C(F)F)C[C@@H]12 [Example 875, N-(3-((1S,5S,6S)-3-amino-1-(difluoromethyl)-5-methyl-2-thia-4-azabicyclo[4.1.0]hept-3-en-5-yl)-4,5-difluorophenyl)-2-(1,3-thiazol-4-ylmethoxy)pyrido[3,4-b]pyrazin-5-amine]	295	0.0272	0.00296	0.0352
CC(C)Oc1cnc2c(Nc3cc(F)c(F)c([C@@]4(C)N=C(N)S[C@@]5(C(F)F)C[C@@H]45)c3)nccc2n1 [Example 876, N-(3-((1S,5S,6S)-3-amino-1-(difluoromethyl)-5-methyl-2-thia-4-azabicyclo[4.1.0]hept-3-en-5-yl)-4,5-difluorophenyl)-2-(1-methylethoxy)pyrido[3,4-b]pyrazin-5-amine]	223	0.587	0.0801	0.912
Cc1nnc(COc2cnc3c(Nc4cc(F)c(F)c([C@@]5(C)N=C(N)S[C@@]6(C(F)F)C[C@@H]56)c4)nccc3n2)o1 [Example 877, N-(3-((1S,5S,6S)-3-amino-1-(difluoromethyl)-5-methyl-2-thia-4-azabicyclo[4.1.0]hept-3-en-5-yl)-4,5-difluorophenyl)-2-((5-methyl-1,3,4-oxadiazol-2-yl)methoxy)pyrido[3,4-b]pyrazin-5-amine]	343	0.0294	0.011	0.338
CN(C)C(=O)COc1cnc2c(Nc3cc(F)c(F)c([C@@]4(C)N=C(N)S[C@@]5(C(F)F)C[C@@H]45)c3)nccc2n1 [Example 878, 2-((5-((3-((1S,5S,6S)-3-amino-1-(difluoromethyl)-5-methyl-2-thia-4-azabicyclo[4.1.0]hept-3-en-5-yl)-4,5-difluorophenyl)amino)pyrido[3,4-b]pyrazin-2-yl)oxy)-N,N-dimethylacetamide]	171	1.07	0.231	0.353
C#C[C@H](C)Oc1cnc2c(Nc3ccc(F)c([C@@]4(CF)N=C(N)S[C@@]5(CF)C[C@H]54)c3)nccc2n1 [Example 879, N-(3-((1S,5S,6S)-3-amino-1,5-bis(fluoromethyl)-2-thia-4-azabicyclo[4.1.0]hept-3-en-5-yl)-4-fluorophenyl)-2-(((1S)-1-methyl-2-propyn-1-yl)oxy)pyrido[3,4-b]pyrazin-5-amine]	2690	0.0179	0.00107	0.282
Cc1noc(COc2cnc3c(Nc4ccc(F)c([C@@]5(CF)N=C(N)S[C@@]6(CF)C[C@H]65)c4)nccc3n2)n1 [Example 880, N-(3-((1S,5S,6S)-3-amino-1,5-bis(fluoromethyl)-2-thia-4-azabicyclo[4.1.0]hept-3-en-5-yl)-4-fluorophenyl)-2-((3-methyl-1,2,4-oxadiazol-5-yl)methoxy)pyrido[3,4-b]pyrazin-5-amine]	1110	0.0193	0.00452	0.27
